# Earlier results, collected in patent US20050227929A1, “Combination therapy comprising a Cox-2 inhibitor and an antineoplastic agent” (priority 2003, published 2005).
# Where two headings read alike, the source gives them in different places. Where a SMILES comes first, the peptide text is derived from it.
# B1: SB-408075 (conjugate, chains of the INN, looked up)
# VH: QVQLVQSGAEVKKPGETVKISCKASDYTFTYYGMNWVKQAPGQGLKWMGWIDTTTGEPTYAQKFQGRIAFSLETSASTAYLQIKSLKSEDTATYFCARRGPYNWYFDVWGQGTTVTVSS
# VL: DIVMTQSPLSVPVTPGEPVSISCRSSKSLLHSNGNTYLYWFLQRPGQSPQLLIYRMSNLVSGVPDRFSGSGSGTAFTLRISRVEAEDVGVYYCLQHLEYPFTFGPGTKLELK
# modifications: DM1 maytansinoid payload
# Assays:
# [1] = human, in vivo
# tumors = conditions: tumor-bearing mice received 225-300 μg/kg over 5 days
molecule,measurement,setting,value
CNC(=O)c1cc(Oc2ccc(NC(=O)Nc3ccc(Cl)c(C(F)(F)F)c3)cc2)ccn1 [BAY-439006],Toxicity,dosage listed: 50-400 mg/day,well tolerated
"N[C@@H](CCC(=O)O)C(=O)N[C@@H](Cc1c[nH]c2ccccc12)C(=O)O [IM 862, L-alpha-glutamyl-L-tryptophan] (H-Glu-Trp-OH)",Toxicity,in vivo,no hematological
"COc1ccc(NS(=O)(=O)c2c(F)c(F)c(F)c(F)c2F)cc1F [T138067, 2,3,4,5,6-pentafluoro-N-(3-fluoro-4-methoxyphenyl)benzenesulfonamide]",Dosage: tolerability,up to 440 mg/m^2 by 3-hour infusion every 4 weeks,well tolerated
"CC(C)[C@H]1C(=O)N[C@@H](CCCN=C(N)N)C(=O)NCC(=O)N[C@@H](CC(=O)O)C(=O)N[C@H](Cc2ccccc2)C(=O)N1C [cilengitide, cyclo(L-arginylglycyl-L-alpha-aspartyl-D-phenylalanyl-N-methyl-L-valyl)]",Toxicity,[1],well tolerated and safe
Cc1occc(=O)c1[O-].Cc1occc(=O)c1[O-].Cc1occc(=O)c1[O-].[Ga+3] [gallium maltolate],Toxicity,in vivo,good safety
"Cc1ccc2nc(N)[nH]c(=O)c2c1Sc1ccncc1 [nolatrexed, 2-amino-6-methyl-5-(4-pyridinylthio)-4(1H)-quinazolinone]",Dosage: tolerability,[1],tumors is well
"O=S1(=O)CCN(CN2CCS(=O)(=O)NC2)CN1 [taurolidine, 4,4′-methylenebis[tetrahydro-2H-1,2,4-thiadiazine]1,1,1′,1′-tetraoxide]",Dosage: tolerability,"in vivo, 350 mg/kg/day",well tolerated
Nc1ccn([C@@H]2O[C@H](CO)[C@@H](O)/C2=C\F)c(=O)n1 [tezacitabine],Toxicity,[1],generally
B1,complete responses seen in % of animals,tumors,in 100% of
